Results taken from patent EP0048614B1, “1-N-acylated and 1-N-alkylated derivatives of 4-0-substituted -2-deoxystreptamine aminoglycosides” (ELI LILLY AND COMPANY, priority 1980, dated 1982).
Converted amounts (≈) assume the structure as drawn. “And” between values parts separate entries of the source, which are not always exact repeats. Identical values can stand only once. Like-named read-outs stand apart in the source and are kept apart here.

Assays:
[1] = test system: Staphylococcus aureus 3055; experiment: Subcutaneous therapy of experimental bacterial infection in mice (ED50); assay type: in vivo; settings: Staphylococcus aureus, 3055, sc
Procedure: Table II illustrates the effective dose (ED50, the effective dose to protect 50 percent of the test animals) for representative compounds of this invention against an experimental bacterial infection in mice.
The ED50 values were determined as described by W. E. Wick et al., Journal of Bacteriology, 81 [No. 2], 233-235 (1961).

B. subtilis X12 = experiment: Bioautography of thin layer chromatography plate; assay type: cell-based; settings: TLC plate of the reaction mixture against B. subtilis X12
Procedure: Apramycin (54 mg, 0.1 mmol) was dissolved in water (1 ml). Zinc acetate dihydrate (100 mg, 0.4 mmol) was added to this solution and the mixture was briefly sonicated to disperse crystals of zinc acetate. The ' mixture was diluted with dimethylformamide (5 ml), 1-iodo-n-butane (0.115 ml), 1 mmol) was added and this reaction mixture was stirred at room temperature for 4 days.

Hemophilus influenzae 76 = experiment: MIC, standard agar dilution test; assay type: cell-based
Text: (§1) The antibacterial activity of the deprotected compounds of this invention is illustrated by the following in vitro and in vivo test data obtained with representative compounds. In Table I, the minimum inhibitory concentration (MIC) for representative compounds against a wide range of gram-positive and gram-negative bacteria is presented. The MIC values were obtained by the standard agar dilution test.

Serratia marcescens X99 = experiment: MIC, standard agar dilution test; assay type: cell-based
Text: as §1

[2] = test system: Hemophilus influenzae C.L.; experiment: MIC, standard agar dilution test; assay type: cell-based; settings: Hemophilus influenzae C.L.
Text: as §1

Escherichia coli N10 = experiment: MIC, standard agar dilution test; assay type: cell-based; settings: agar dilution
Text: as §1

[3] = test system: Staphylococcus aureus X400; experiment: MIC, standard agar dilution test; assay type: cell-based
Text: as §1

[4] = test system: Staphylococcus aureus X1.1; experiment: MIC, standard agar dilution test; assay type: cell-based; settings: Staphylococcus aureus X1.1, agar dilution
Text: as §1

[5] = test system: Enterobacter aerogenes X68; experiment: MIC, standard agar dilution test; assay type: cell-based
Text: as §1

Proteus rettgeri PR7 = experiment: MIC, standard agar dilution test; assay type: cell-based
Text: as §1

Escherichia coli X563 = experiment: Standard disc-plate method, zone of inhibition against apramycin-resistant strain; assay type: cell-based; settings: 15 mcg/disc; apramycin-resistant E. coli X563; one value for each of two test runs per compound; listed as 2
Text: Table III, shown below, illustrates the in vitro activity of 1-N-(S-y-amino-a-hydroxybutyryl)apramycin, 1-N-(RS-y-amino-a-hydroxybutyryl)apramycin, and 1-N-(S-y-amino-a-hydroxybutyryl)nebramine against an apramycin resistant strain of E. coli. The results below were obtained using the standard disc-plate method. The numerical values are the diameters in millimeters of the zones of inhibition observed against this bacterium. Compounds substituted with the y-amino-a-hydroxybutyryl and analogous side chains are useful in treating infections caused by apramycin resistant bacteria such as the one above.
The test organism (E. coli X563) used in the experiments summarized in Table III is resistant to apramycin due to a 3-N-acetyltransferase which enzymatically inactivates apramycin.

[6] = test system: Klebsiella pneumoniae KAE; experiment: MIC, standard agar dilution test; assay type: cell-based; settings: Klebsiella pneumoniae KAE; agar dilution; read-out: Minimum Inhibitory Concentration
Text: as §1

[7] = test system: Citrobacter freundii CF17; experiment: MIC, standard agar dilution test; assay type: cell-based; settings: Citrobacter freundii CF17; agar dilution; read-out: Minimum Inhibitory Concentration
Text: as §1

Shigella sonnei N9 = experiment: MIC, standard agar dilution test; assay type: cell-based; settings: read-out: Minimum Inhibitory Concentration
Text: as §1

[8] = test system: Staphylococcus epidermidis EPI2; experiment: MIC, standard agar dilution test; assay type: cell-based; settings: Staphylococcus epidermidis EPI2; agar dilution; read-out: Minimum Inhibitory Concentration
Text: as §1

Escherichia coli EC14 = experiment: MIC, standard agar dilution test; assay type: cell-based; settings: Escherichia coli EC14; agar dilution; read-out: Minimum Inhibitory Concentration
Text: as §1

Enterobacter cloacae EB5 = experiment: MIC, standard agar dilution test; assay type: cell-based; settings: Enterobacter cloacae EB5; agar dilution; read-out: Minimum Inhibitory Concentration
Text: as §1

[9] = test system: Enterobacter aerogenes EB17; experiment: MIC, standard agar dilution test; assay type: cell-based; settings: Klebsiella aerogenes; Enterobacter aerogenes EB17; agar dilution; read-out: Minimum Inhibitory Concentration
Text: as §1

[10] = test system: Staphylococcus epidermidis EPI1; experiment: MIC, standard agar dilution test; assay type: cell-based; settings: Staphylococcus epidermidis EPI1; agar dilution; read-out: Minimum Inhibitory Concentration
Text: as §1

[11] = test system: Enterobacter cloacae 265A; experiment: MIC, standard agar dilution test; assay type: cell-based; settings: Enterobacter cloacae 265A; agar dilution; read-out: Minimum Inhibitory Concentration
Text: as §1

[12] = test system: Pseudomonas aeruginosa X528; experiment: MIC, standard agar dilution test; assay type: cell-based; settings: Pseudomonas aeruginosa X528; agar dilution; read-out: Minimum Inhibitory Concentration
Text: as §1

[13] = test system: Salmonella heidelberg X514; experiment: MIC, standard agar dilution test; assay type: cell-based; settings: Salmonella enterica; Salmonella heidelberg X514; agar dilution; read-out: Minimum Inhibitory Concentration
Text: as §1

[14] = test system: Pseudomonas aeruginosa X239; experiment: MIC, standard agar dilution test; assay type: cell-based; settings: Pseudomonas aeruginosa X239; agar dilution; read-out: Minimum Inhibitory Concentration
Text: as §1

[15] = test system: Streptococcus group D 9960; experiment: MIC, standard agar dilution test; assay type: cell-based; settings: D9960; Streptococcus group D 9960; agar dilution; read-out: Minimum Inhibitory Concentration
Text: as §1

[16] = test system: Streptococcus pyogenes C203; experiment: MIC, standard agar dilution test; assay type: cell-based; settings: Streptococcus pyogenes C203; agar dilution; read-out: Minimum Inhibitory Concentration
Text: as §1

Escherichia coli TEM = experiment: MIC, standard agar dilution test; assay type: cell-based; settings: read-out: Minimum Inhibitory Concentration
Text: as §1

Proteus inconstans PR33 = experiment: MIC, standard agar dilution test; assay type: cell-based; settings: Providencia alcalifaciens; Proteus inconstans PR33; agar dilution; read-out: Minimum Inhibitory Concentration
Text: as §1

[17] = test system: Streptococcus pneumoniae Park I; experiment: MIC, standard agar dilution test; assay type: cell-based; settings: Streptococcus pneumoniae Park I; agar dilution; read-out: Minimum Inhibitory Concentration
Text: as §1

Proteus rettgeri C24 = experiment: MIC, standard agar dilution test; assay type: cell-based; settings: Providencia rettgeri; Proteus rettgeri C24; agar dilution; read-out: Minimum Inhibitory Concentration
Text: as §1

[18] = test system: Enterobacter aerogenes C32; experiment: MIC, standard agar dilution test; assay type: cell-based; settings: Klebsiella aerogenes; Enterobacter aerogenes C32; agar dilution; read-out: Minimum Inhibitory Concentration
Text: as §1

[19] = test system: Pseudomonas aeruginosa Ps18; experiment: MIC, standard agar dilution test; assay type: cell-based; settings: Pseudomonas aeruginosa Ps18; agar dilution; read-out: Minimum Inhibitory Concentration
Text: as §1

[20] = test system: Staphylococcus aureus V41; experiment: MIC, standard agar dilution test; assay type: cell-based; settings: Staphylococcus aureus V41; agar dilution; read-out: Minimum Inhibitory Concentration
Text: as §1

[21] = test system: Klebsiella pneumoniae X26; experiment: MIC, standard agar dilution test; assay type: cell-based; settings: Klebsiella pneumoniae X26; agar dilution; read-out: Minimum Inhibitory Concentration
Text: as §1

[22] = test system: Streptococcus group D X66; experiment: MIC, standard agar dilution test; assay type: cell-based; settings: DX66; Streptococcus group D X66; agar dilution; read-out: Minimum Inhibitory Concentration
Text: as §1

[23] = test system: Staphylococcus aureus S13E; experiment: MIC, standard agar dilution test; assay type: cell-based; settings: read-out: Minimum Inhibitory Concentration
Text: as §1

Serratia marcescens SE3 = experiment: MIC, standard agar dilution test; assay type: cell-based; settings: Serratia marcescens SE3; agar dilution; read-out: Minimum Inhibitory Concentration
Text: as §1

[24] = test system: Bordetella bronchiseptica 16; experiment: MIC, standard agar dilution test; assay type: cell-based; settings: Bordetella bronchiseptica 16; agar dilution; read-out: Minimum Inhibitory Concentration
Text: as §1

Proteus morganii PR15 = experiment: MIC, standard agar dilution test; assay type: cell-based; settings: Morganella morganii; Proteus morganii PR15; agar dilution; read-out: Minimum Inhibitory Concentration
Text: as §1

[25] = test system: Salmonella typhimurium 1335; experiment: MIC, standard agar dilution test; assay type: cell-based; settings: Salmonella enterica; Salmonella typhimurium 1335; agar dilution; read-out: Minimum Inhibitory Concentration
Text: as §1

CNC1C(OC2OC(CO)C(N)C(O)C2O)OC2CC(N)C(OC3C(N)CC(NC(=O)C(O)CCN)C(O)C3O)OC2C1O (stereo not drawn)
ED50 ([1]; read-out: Effective Dose (ED50), mg/kg × 2 subcutaneous doses at 1 and 5 hours post infection, mice challenged with 331 LD50's): 7.1 mg/kg

NCC[C@H](O)C(=O)N[C@@H]1C[C@H](N)[C@@H](O[C@H]2O[C@H](CN)[C@@H](O)C[C@H]2N)[C@H](O)[C@H]1O
ED50 ([1]; mg/kg × 2 subcutaneous doses at 1 and 5 hours post infection, mice challenged with 1,794 LD50's, read-out: Effective Dose (ED50)): 8.75 mg/kg

CCCCNC1CC(N)C(OC2OC3C(CC2N)OC(OC2OC(CO)C(N)C(O)C2O)C(NC)C3O)C(O)C1O (stereo not drawn) [1-N-(n-butyl)apramycin]
zone of inhibition (bioautography) (B. subtilis X12): good zone of inhibition

C=CCNC1CC(N)C(OC2OC3C(CC2N)OC(OC2OC(CO)C(N)C(O)C2O)C(NC)C3O)C(O)C1O (stereo not drawn) [1-N-allylapramycin]
zone of inhibition (bioautography) (B. subtilis X12): good zone of inhibition

CNC1C(OC2OC(CO)C(N)C(O)C2O)OC2CC(N)C(OC3C(N)CC(NCc4ccccc4)C(O)C3O)OC2C1O (stereo not drawn) [1-N-benzylapramycin]
zone of inhibition (bioautography) (B. subtilis X12): zone of inhibition

CCCCNC1CC(N)C(O)C(O)C1OC1OC2C(CC1N)OC(OC1OC(CO)C(N)C(O)C1O)C(NC)C2O (stereo not drawn) [3-N-(n-butyl)apramycin]
zone of inhibition (bioautography) (B. subtilis X12): not

CNC1C(OC2OC(CO)C(N)C(O)C2O)OC2CC(N)C(OC3C(N)CC(NC(=O)C(O)CCN)C(O)C3O)OC2C1O (stereo not drawn) [Test Compound 2, 1-N-(RS-γ-amino-α-hydroxybutyryl)apramycin]
Minimum Inhibitory Concentration (Hemophilus influenzae 76; Hemophilus influenzae 76): 32 µg/mL | Minimum Inhibitory Concentration (Serratia marcescens X99; Serratia marcescens X99): 16 µg/mL | Minimum Inhibitory Concentration [2]: 32 µg/mL | Minimum Inhibitory Concentration (Escherichia coli N10; Escherichia coli N10): 16 µg/mL | Minimum Inhibitory Concentration ([3]; Staphylococcus aureus X400): 64 µg/mL | Minimum Inhibitory Concentration [4]: 8 µg/mL | Minimum Inhibitory Concentration ([5]; Enterobacter aerogenes X68): 16 µg/mL | Minimum Inhibitory Concentration (Proteus rettgeri PR7; Proteus rettgeri PR7): 4 µg/mL | Zone of Inhibition (diameter in mm) (Escherichia coli X563): 12.5 mm and 13.6 mm

NCC[C@H](O)C(=O)N[C@@H]1C[C@H](N)[C@@H](O[C@H]2O[C@H](CN)[C@@H](O)C[C@H]2N)[C@H](O)[C@H]1O [Test Compound 5, 1-N-(S-γ-amino-α-hydroxybutyryl)nebramine]
MIC [6]: 8 µg/mL (≈ 19.6 µM) | MIC [7]: 16 µg/mL (≈ 39.3 µM) | MIC (Shigella sonnei N9): 16 µg/mL (≈ 39.3 µM) | MIC [8]: 4 µg/mL (≈ 9.82 µM) | MIC (Escherichia coli EC14): 16 µg/mL (≈ 39.3 µM) | MIC (Enterobacter cloacae EB5): 16 µg/mL (≈ 39.3 µM) | MIC [9]: 8 µg/mL (≈ 19.6 µM) | MIC [10]: 8 µg/mL (≈ 19.6 µM) | MIC [11]: 32 µg/mL (≈ 78.5 µM) | MIC [12]: 64 µg/mL (≈ 157 µM) | MIC [13]: 16 µg/mL (≈ 39.3 µM) | MIC [14]: 32 µg/mL (≈ 78.5 µM) | MIC [15]: > 128 µg/mL | MIC [16]: 16 µg/mL (≈ 39.3 µM) | MIC (Escherichia coli TEM): 2 µg/mL (≈ 4.91 µM) | MIC (Proteus inconstans PR33): 8 µg/mL (≈ 19.6 µM) | MIC [17]: 16 µg/mL (≈ 39.3 µM) | MIC (Hemophilus influenzae 76; Haemophilus influenzae, Hemophilus influenzae 76, read-out: Minimum Inhibitory Concentration): 16 µg/mL (≈ 39.3 µM) | MIC (Proteus rettgeri C24): 8 µg/mL (≈ 19.6 µM) | MIC (Serratia marcescens X99; Serratia marcescens X99, read-out: Minimum Inhibitory Concentration): 8 µg/mL (≈ 19.6 µM) | MIC [18]: 8 µg/mL (≈ 19.6 µM) | MIC [19]: 32 µg/mL (≈ 78.5 µM) | MIC [20]: 8 µg/mL (≈ 19.6 µM) | MIC [21]: 4 µg/mL (≈ 9.82 µM) | MIC [22]: > 128 µg/mL | MIC ([2]; Haemophilus influenzae, read-out: Minimum Inhibitory Concentration): 16 µg/mL (≈ 39.3 µM) | MIC (Escherichia coli N10; Escherichia coli, N10, Escherichia coli N10, read-out: Minimum Inhibitory Concentration): 8 µg/mL (≈ 19.6 µM) | MIC [23]: 8 µg/mL (≈ 19.6 µM) | MIC (Serratia marcescens SE3): 16 µg/mL (≈ 39.3 µM) | MIC [24]: 32 µg/mL (≈ 78.5 µM) | MIC ([3]; Staphylococcus aureus X400, read-out: Minimum Inhibitory Concentration): 64 µg/mL (≈ 157 µM) | MIC ([4]; read-out: Minimum Inhibitory Concentration): 8 µg/mL (≈ 19.6 µM) | MIC ([5]; Klebsiella aerogenes, Enterobacter aerogenes X68, read-out: Minimum Inhibitory Concentration): 8 µg/mL (≈ 19.6 µM) | MIC (Proteus rettgeri PR7; Providencia rettgeri, Proteus rettgeri PR7, read-out: Minimum Inhibitory Concentration): 8 µg/mL (≈ 19.6 µM) | MIC (Proteus morganii PR15): 32 µg/mL (≈ 78.5 µM) | MIC [25]: 8 µg/mL (≈ 19.6 µM)
